Data on five molecules can be found in patent US4358444A, “2,4-Dioxacyclohexanone derivative” (Dr. L. Zambeletti S.p.A., priority 1981, dated 1982).

The format of data set [1] is in vivo. Conditions: for distribution / route of excretion/elimination: metabolite.
Data set [2] deals with gastric mucosa. As to the kind of experiment: Gastrolesive activity after oral administration. The class given is in vivo, rats. Particulars: for gastric tolerability / gastrolesive effect (in words): oral. The method, then: MR 693 and acetylsalycilic acid as the comparison substance were administered by oral route to rats fastened from at least 18 hours.
After six hours from the beginning of the experiment, the rats were sacrificed and the stomachs were opened and examined in order to verify the presence of lesions on the gastric mucosa.

Data set [3] has as its system carrageenin induced edema. As to the kind of experiment: Carrageenin induced edema test (antinflammatory activity). The data set is classed as in vivo, rats. Conditions: for reduction of the edema / antiinflammatory action compared with acetylsalicylic acid (in words): oral, equimolecular dosages. The source says:
The antinflammatory properties of MR 693 have been investigated by means of the carrageenin induced edema test in rats, by administering the compound of the invention by oral route and using acetylsalycilic acid as the comparison substance, at equimolecular dosages.

For data set [4], the system named is yeast induced hypertermia. As to the kind of experiment: Yeast induced hypertermia test (antipyretic activity). The data set is classed as in vivo, rat. The source says:
This activity has been investigated by means of the yeast induced hypertermia test in the rat, taking again acetylsalycilic acid, administered at equimolecular dosages, as the comparison substance.

Data set [5] is described as follows: Acute toxicity in mice. Particulars: in vivo, po; mouse, os; read-out: DL50 (the source's name). The source says:
(§1) Acute toxicity tests have been carried out in mice rats, by administering the compound of the invention by oral and intraperitoneal route.

Data set [6] in a line: Acute toxicity in rats. Particulars: in vivo, rat, read-out: DL50 (the source's name).
Excerpt: as §1

Data set [7] concerns rats. The experiment in a line: Subacute toxicity in rats, oral, four weeks. The data set is classed as in vivo. Conditions: four consecutive weeks. The source says: (§2) Subacute toxicity studies have been carried out on rats and dogs, by administering MR 693 by oral route for four consecutive weeks.
(§3) The parameters which have been taken into consideration are as follows:
(§4) glycosuria, proteinuria, albuminuria and haematuria
(§5) weight of the principal organs

Data set [8] concerns dogs. As to the kind of experiment: Subacute toxicity in dogs, oral, four weeks. The data set is classed as in vivo. Conditions: four consecutive weeks.
Excerpt: as §2, §3, §4, §5

The subject of data set [9] is rats. As to the kind of experiment: Chronic toxicity in rats, oral, 24 weeks. The data set is classed as in vivo.
Excerpt: (§6) Chronic toxicity studies have been carried out on rats, administered by oral route with MR 693 for 24 consecutive weeks, and dogs, administered by oral and rectal route with the compound of the invention again for 24 weeks.
as §3
(§7) biochemical examination of the blood glycosuria, proteinuria, haematuria, albuminuria
(§8) weight and hystological control of the principal organs;

Data set [10] relates to dogs. The experiment in a line: Chronic toxicity in dogs, oral and rectal, 24 weeks. The data set is classed as in vivo.
Excerpt: as §6, §3, §7, §8

Data set [11] deals with rats. As to the kind of experiment: Theratogenesis studies in rats. The class given is in vivo. Particulars: oral, all along the pregnancy. The source says: (§9) Theratogenesis studies have been carried out on rats and rabbits, which have been treated by oral route with MR 693 all along the duration of the pregnancy. […]
(§10) number of pregnant females […]
(§11) initial body weight/end body weight (of the mothers) […]
(§12) average number of lived foetuses total number of dead foetuses total number of re-absorptions average weight of lived foetuses

Data set [12] has as its system rabbits. The experiment in a line: Theratogenesis studies in rabbits. The data set is classed as in vivo. Particulars: oral, all along the pregnancy.
Excerpt: as §9, §10, §11, §12

In data set [13] the test system is esterase. The experiment in a line: In vitro metabolism (enzymatic hydrolysis). The class given is in vitro ADME. The source says:
Studies have been performed both in vitro and in vivo.

A short description of data set [14]: Toxicity, overall statement (acute, subacute and chronic). The data set is classed as in vivo.
Excerpt: as §1, §2, §6

Data set [15] deals with citric acid aerosol induced cough. The experiment in a line: Citric acid aerosol induced cough test (antitussive activity). Conditions: for antitussive activity compared with codeine (in words): 500 mg/kg oral vs codeine 25 mg/kg oral, general statement in b2.
Where [16] appears, read: listed as 3-(2-methoxy-phenoxy)-3-methyl-benzo-2,4-dioxacyclohexanone.
[17] abbreviates: 400 mg/kg os (equimolecular dosage).
[18] abbreviates: 250 mg/kg os (equimolecular dosage).

Where two headings read alike, the source gives them in different places.

As for `COc1ccccc1O` [guaiacol], the pulmonary tropism result in data set [1] (assumed from lung concentrations and pulmonary tropism of guaiacol) is “marked pulmonary tropism”. For the same molecule, in data set [1] (in vivo, after oral administration of MR 693), the absorption entry is “mainly absorbed by pre-systemic route”. In data set [1] (after administration of MR 693), the distribution entry was “enters the lungs through the lymphatic vessels” and the route of excretion/elimination entry is “eliminated by respiratory route”.
For `O=C(O)c1ccccc1O` [salycilic acid], in data set [1] (after administration of MR 693), the “concentration observed in the lungs compared with plasma and liver” value is “higher than those observed in the plasma and the liver”; the distribution result is given as “enter the systemic circulation”; the route of excretion/elimination result was “excreted by urinary route”.
`COc1ccccc1OC1(C)OC(=O)c2ccccc2O1` (stereo not drawn) [MR 693, 3-(2-methoxy-phenoxy)-3-methyl-benzo-2,4-dioxacyclohexanone]: the “Average diameter of the lesions” value in [2] (100 mg/kg os, six hours) worked out at 0 mm; in data set [2] (400 mg/kg os, six hours (equimolecular dosage)) it was 0 mm. Moreover, the “gastric tolerability / gastrolesive effect (in words)” value in data set [2] was “perfectly tolerated at gastric level”; in [2] (setting [16]), “complete absence of any gastrolesive effect”. In [3] (setting [17]), the “% Inhibition of the edema” value is given as 30%. Besides, the “reduction of the edema / antiinflammatory action compared with acetylsalicylic acid (in words)” value in data set [3] was “marked reduction of the edema”; in data set [3] (setting [16]) it was “practically is the same as that possessed by acetylsalicylic acid”. The “% Inhibition (yeast induced hypertermia)” value in data set [4] (setting [17]) was 86%. The “antipyretic activity compared with acetylsalicylic acid (in words)” value in data set [4] (oral, equimolecular dosages, listed as 3-(2-methoxy-phenoxy)-3-methyl-benzo-2,4-dioxacyclohexanone) is recorded as “only slightly lower than that displayed, again, by acetylsalicylic acid”. The LD50 in [5] was above 3000 mg/kg; in data set [6] (ip, i.p.) it was 1750 mg/kg; in data set [6] (po, os) it was above 3000 mg/kg. The “alterations or malformations (subacute toxicity)” value in [7] and in data set [8] was “in no case alterations or malformations ascribable to the treatment” in each case. In addition, the “alterations or anatomo-pathological states (chronic toxicity)” value in [9] (24 consecutive weeks) and in [10] was “no alterations or particularly significant anatomo-pathological states” throughout. For the same molecule, the “alteration of the mucosae of the gastro-intestinal tract” value in data set [9] (24 weeks) and in data set [10] was “did not show any alteration of the mucosae” each time. Moreover, the “theratogenesis: alterations” value in data set [11] and in data set [12] was “no alteration” in each case. Also, the “theratogenesis: number of litters alive” value in [11] and in [12] was “no variation of the number of litters alive” throughout. The “theratogenesis: somatic or skeletal malformations” value in [11] and in data set [12] was “neither somatic not skeletal malformations have been observed” in each case. In addition, the “enzymatic hydrolysis (metabolites)” value in [13] is “enzymatically hydrolyzed to acetylsalycilic acid and guaiacol”. Moreover, the “organs displaying the highest esterase activity” value in data set [13] is “the lungs and the kidneys”. The pulmonary tropism result in [1] (in vivo) is listed as “relative better pulmonary tropism”. In addition, the absorption entry in [1] (in vivo, po) is “absorbed as such for the major part”. Further, the metabolites in vivo result in [1] (in vivo, po) was “hydrolyzed to acetylsalycilic acid, salycilic acid and guaiacol”. The “toxicity (in words)” value in [14] (setting [16]) was “almost negligible toxicity (both acute, subacute and chronic)”; in data set [14] (listed as mr 693) it was “very little toxic compound”. Moreover, the “reduction over the controls of the number of cough-strokes (in words)” value in data set [15] (500 mg/kg oral) is recorded as “marked reduction”. Besides, the “antitussive activity compared with codeine (in words)” value in data set [15] was “better than that displayed, under the same conditions, by an oral dosage of 25 mg/kg of codeine”; in [15] (setting [16]), “higher than that of codeine”. Also, the “% Inhibition of cough-strokes” value in [15] (500 mg/kg os) worked out at 84.3%. In addition, the inhibition at 100 mg/kg in [15] (Cavia porcellus, ip, read-out: % Inhibition of cough-strokes) turned out to be 100%.
As to `COc1ccc2c3c1O[C@H]1[C@@H](O)C=C[C@H]4[C@@H](C2)N(C)CC[C@@]341` [Codeine, codeine, reference compound], the “% Inhibition of cough-strokes” value in data set [15] (12.5 mg/kg i.p.) is given as 93.7%; in data set [15] (25 mg/kg os), 76.7%. The inhibition at 12.5 mg/kg in data set [15] (Cavia porcellus, ip, read-out: % Inhibition of cough-strokes, 12.5 mg/kg i.p.) was 93%.
As for `CC(=O)Oc1ccccc1C(=O)O` [Acetylsalycilic acid, acetylsalicylic acid, reference compound], in data set [2] (250 mg/kg os, six hours (equimolecular dosage)), the “Average diameter of the lesions” value worked out at 3.7 ± 0.8 mm. The “% Inhibition of the edema” value in [3] (setting [18]) turned out to be 33%. Besides, in [4] (setting [18]), the “% Inhibition (yeast induced hypertermia)” value was determined as 103%. The “concentration observed in the lungs compared with plasma and liver” value in data set [1] (in vivo) was “higher than those observed in the plasma and the liver”. Moreover, in data set [1] (after administration of MR 693), the distribution entry is recorded as “enter the systemic circulation”.
